Source: patent US10323019B2, “Pyrazolylaminobenzimidazole derivatives as JAK inhibitors” (Eli Lilly and Company, priority 2016, dated 2019)

Key:
[1] = system: paw swelling in Lewis rats; test: Rat collagen-induced arthritis (CIA) model; assay type: in vivo
Method: Rat Collagen-Induced Arthritis (CIA) Model
This protocol uses Lewis rats (weight 150-175 grams) from Charles River. On day 0, anesthetize rats with Isoflurane. On day 1, immunize intradermally with collagen emulsion in two sites on the lower lumbar region, above the base of the tail. Dose volume is a minimum of 0.4 mL per injection site. On day 8, anesthetize rats with Isoflurane and immunize intradermally with collagen emulsion in two sites on the lower lumbar region, above the base of the tail. Enroll rats into treatment groups on day 12, based on inflammation (redness and/or swelling) in their hind paws. Randomize animals for Treatment Phase based on ankle measurement values and body weight using block randomization allocation tool. Record ankle swelling on days 1, 8, and 11 and then three times per week following enrollment up to and including the day of necropsy. Dose compounds orally once a day starting on day 12 (after randomization) up to day 25. The compounds of Examples 6 and 7 were evaluated in the protocol essentially as described above.

JAK1 = JAK1 (Homo sapiens (Human), UniProt P23458); test: AlphaScreen SureFire p-STAT3-(p-Tyr705)-IL6-TF-1-JAK1 cell-based assay; conditions: TF-1 cells, IL6 30 ng/mL, pSTAT3
Chain of JAK1 (P23458 whole entry): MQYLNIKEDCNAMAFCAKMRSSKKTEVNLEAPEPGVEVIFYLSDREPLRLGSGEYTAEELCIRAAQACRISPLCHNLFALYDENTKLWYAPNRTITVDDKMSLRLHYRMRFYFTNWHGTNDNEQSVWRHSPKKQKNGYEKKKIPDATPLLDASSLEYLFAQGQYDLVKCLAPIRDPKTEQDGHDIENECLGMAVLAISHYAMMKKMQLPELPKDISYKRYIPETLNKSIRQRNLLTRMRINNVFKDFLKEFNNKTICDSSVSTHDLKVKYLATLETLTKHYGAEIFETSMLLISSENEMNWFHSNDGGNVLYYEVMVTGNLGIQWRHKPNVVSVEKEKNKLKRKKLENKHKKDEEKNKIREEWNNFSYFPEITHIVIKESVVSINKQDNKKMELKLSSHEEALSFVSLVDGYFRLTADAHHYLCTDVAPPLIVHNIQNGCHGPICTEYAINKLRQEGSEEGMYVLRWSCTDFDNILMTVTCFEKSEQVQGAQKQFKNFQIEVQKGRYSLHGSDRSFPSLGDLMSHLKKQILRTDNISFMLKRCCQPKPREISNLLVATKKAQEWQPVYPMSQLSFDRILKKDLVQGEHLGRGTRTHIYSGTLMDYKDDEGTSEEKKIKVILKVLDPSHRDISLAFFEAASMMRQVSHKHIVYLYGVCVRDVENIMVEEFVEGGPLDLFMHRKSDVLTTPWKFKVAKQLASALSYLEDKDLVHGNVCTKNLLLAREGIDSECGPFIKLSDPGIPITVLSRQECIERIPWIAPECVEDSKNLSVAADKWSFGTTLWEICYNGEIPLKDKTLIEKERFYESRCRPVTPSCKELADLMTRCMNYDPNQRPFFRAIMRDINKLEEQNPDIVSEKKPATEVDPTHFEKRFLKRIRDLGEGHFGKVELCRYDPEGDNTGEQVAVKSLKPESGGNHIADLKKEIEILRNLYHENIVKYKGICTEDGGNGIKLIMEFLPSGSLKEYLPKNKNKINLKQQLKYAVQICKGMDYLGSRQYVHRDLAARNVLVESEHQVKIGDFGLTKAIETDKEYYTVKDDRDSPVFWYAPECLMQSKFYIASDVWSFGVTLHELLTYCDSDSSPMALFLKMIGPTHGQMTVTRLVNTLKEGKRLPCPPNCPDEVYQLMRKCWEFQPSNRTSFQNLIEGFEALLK
Method: AlphaScreen SureFire Protocol p-STAT3-(p-Tyr705)-IL6-TF-1-JAK1 Cell-Based Assay
The JAK1 cell based assay described below is used to determine the JAK1 cellular potency of test compounds.
Cell preparation: Starve TF-1 cells in DMEM medium with 0.5% […] and 1× Pen/Strep at 37° C. Plate 100K cells per well in BD 96 well black plates with clear bottoms. Maintain the plates at RT for 30-60 minutes before incubating overnight at 37° C., and 5% CO2. Count cells using Vi-Cell counter, using a cell suspension at […] and plated 100 μL/well in […] Biocoat plates (Catalog #354640).
Test compound preparation and treatment: Prepare compounds at 1:3 serial dilutions in DMSO and further dilute into the medium. Test compounds in a range of 10 point concentrations from 20,000 to 1 nM. Add diluted compound to corresponding cell plates. Incubate the plates at 37° C. for 20 min. Add IL6 solution at the final concentration 30 ng/mL to corresponding cell plates and continue to incubate at 37° C. for 30 min. Remove media and add 50 μL 1× lysis buffer to each well.
pSTAT3 detection: Perform the following steps sequentially: make acceptor mix (activation buffer/reaction buffer/acceptor beads); transfer 4 μL lysate from 96 well plates to 384 well-Proxiplates; add 5 μL acceptor mix to 384 proxiplate plate(s) and seal plates with aluminum seal; shake 1-2 minutes on plate shaker; incubate plate at RT for 2 hr with gentle shaking; make donor mix (donor beads in dilution buffer); add 2 μL donor mix to assay plates; seal plates with aluminum seal; shake 1-2 minutes on plate shaker; incubate at RT for 2 hr with gentle shaking; read plate with Envision; protocol AlphaScreen Surefire 384.

JAK3 = JAK3 (Homo sapiens (Human), UniProt P52333); test: JAK LanthaScreen Kinase Assay (TR-FRET), JAK3 in vitro enzyme assay; assay type: biochemical; conditions: 20.0 μM ATP
Chain of JAK3 (P52333 whole entry): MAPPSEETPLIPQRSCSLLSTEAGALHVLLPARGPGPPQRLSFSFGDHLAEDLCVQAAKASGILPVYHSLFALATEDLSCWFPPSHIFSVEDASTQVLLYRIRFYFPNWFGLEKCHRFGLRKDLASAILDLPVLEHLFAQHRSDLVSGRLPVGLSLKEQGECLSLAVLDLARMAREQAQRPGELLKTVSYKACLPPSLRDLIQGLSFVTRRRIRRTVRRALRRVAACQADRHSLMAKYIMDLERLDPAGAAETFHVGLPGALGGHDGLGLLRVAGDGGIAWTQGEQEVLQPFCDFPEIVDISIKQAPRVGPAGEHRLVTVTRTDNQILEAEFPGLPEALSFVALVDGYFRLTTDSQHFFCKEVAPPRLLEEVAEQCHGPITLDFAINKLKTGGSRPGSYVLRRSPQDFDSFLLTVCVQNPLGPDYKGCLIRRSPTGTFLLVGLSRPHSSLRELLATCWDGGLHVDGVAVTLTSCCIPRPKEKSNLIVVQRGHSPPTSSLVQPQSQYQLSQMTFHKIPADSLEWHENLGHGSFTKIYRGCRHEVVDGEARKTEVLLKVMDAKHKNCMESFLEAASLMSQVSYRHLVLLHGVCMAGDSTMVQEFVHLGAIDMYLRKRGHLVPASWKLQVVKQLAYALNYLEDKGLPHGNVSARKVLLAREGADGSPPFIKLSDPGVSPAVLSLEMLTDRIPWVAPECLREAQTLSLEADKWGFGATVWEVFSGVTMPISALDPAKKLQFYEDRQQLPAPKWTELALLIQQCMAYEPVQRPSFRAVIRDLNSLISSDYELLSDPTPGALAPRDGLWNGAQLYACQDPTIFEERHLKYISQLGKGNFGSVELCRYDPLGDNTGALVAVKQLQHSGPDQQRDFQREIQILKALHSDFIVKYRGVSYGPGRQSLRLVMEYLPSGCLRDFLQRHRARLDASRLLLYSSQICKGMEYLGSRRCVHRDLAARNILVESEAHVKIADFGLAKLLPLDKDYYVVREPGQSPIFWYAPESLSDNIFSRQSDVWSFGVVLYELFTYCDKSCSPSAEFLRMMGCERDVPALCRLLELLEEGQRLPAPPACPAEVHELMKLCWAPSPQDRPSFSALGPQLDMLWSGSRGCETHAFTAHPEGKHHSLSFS
Method: (§1) The JAK LanthaScreen™ Kinase Assay (Invitrogen) is used to determine the ability of test compounds to inhibit JAK1, JAK2, and JAK3 kinase activity. These are TR-FRET assay formats that use long-lifetime terbium labeled antibody as the donor species and GFP-STAT1 as the acceptor species. Use the TR-FRET ratio to monitor JAK kinase activity where an increase in phosphorylation of the GFP-STAT1 results in an increase in the TR-FRET ratio. Perform the kinase reaction using a 12.5 μl reaction volume in shallow black 384-well Proxiplate®. Add reagents to obtain final reaction conditions of […], 1.76 mM Triton X-100, ATP (20.0 μM for JAK1 and JAK3 or 5 μM for JAK2) enzyme assays, 10.0 mM MgCl2, 1 mM EGTA and 0.01% Brij-35, […] GFP-STAT1, 14 nM JAK1 enzyme for JAK1, 1.0 nM for JAK2 or 2.5 nM for JAK3 enzyme assays, and 4% DMSO and serial dilutions of test compound (diluted 1:3 from 20,000 to 1 nM). Following ATP/GFP-STAT1 addition, centrifuge the assay plates for 1 minute at 1000 revolutions per minute (RPM). Allow the plates to incubate at RT for 60 minutes and then add 12.5 μl of a stopping buffer containing 20 mM EDTA, 2 nM Terbium-anti-phosphorylated Signal Transducers and Activators of Transcription [phosphorylation Tyrosine 701 amino acid] […] Use ACTIVITYBASE® 4.0 to fit the percent inhibition and ten-point compound concentration data to a four-parameter logistic equation.

JAK2 = JAK2 (Homo sapiens (Human), UniProt O60674); test: JAK LanthaScreen Kinase Assay (TR-FRET), JAK2 in vitro enzyme assay; assay type: biochemical; conditions: 5 μM ATP
Chain of JAK2 (O60674 whole entry): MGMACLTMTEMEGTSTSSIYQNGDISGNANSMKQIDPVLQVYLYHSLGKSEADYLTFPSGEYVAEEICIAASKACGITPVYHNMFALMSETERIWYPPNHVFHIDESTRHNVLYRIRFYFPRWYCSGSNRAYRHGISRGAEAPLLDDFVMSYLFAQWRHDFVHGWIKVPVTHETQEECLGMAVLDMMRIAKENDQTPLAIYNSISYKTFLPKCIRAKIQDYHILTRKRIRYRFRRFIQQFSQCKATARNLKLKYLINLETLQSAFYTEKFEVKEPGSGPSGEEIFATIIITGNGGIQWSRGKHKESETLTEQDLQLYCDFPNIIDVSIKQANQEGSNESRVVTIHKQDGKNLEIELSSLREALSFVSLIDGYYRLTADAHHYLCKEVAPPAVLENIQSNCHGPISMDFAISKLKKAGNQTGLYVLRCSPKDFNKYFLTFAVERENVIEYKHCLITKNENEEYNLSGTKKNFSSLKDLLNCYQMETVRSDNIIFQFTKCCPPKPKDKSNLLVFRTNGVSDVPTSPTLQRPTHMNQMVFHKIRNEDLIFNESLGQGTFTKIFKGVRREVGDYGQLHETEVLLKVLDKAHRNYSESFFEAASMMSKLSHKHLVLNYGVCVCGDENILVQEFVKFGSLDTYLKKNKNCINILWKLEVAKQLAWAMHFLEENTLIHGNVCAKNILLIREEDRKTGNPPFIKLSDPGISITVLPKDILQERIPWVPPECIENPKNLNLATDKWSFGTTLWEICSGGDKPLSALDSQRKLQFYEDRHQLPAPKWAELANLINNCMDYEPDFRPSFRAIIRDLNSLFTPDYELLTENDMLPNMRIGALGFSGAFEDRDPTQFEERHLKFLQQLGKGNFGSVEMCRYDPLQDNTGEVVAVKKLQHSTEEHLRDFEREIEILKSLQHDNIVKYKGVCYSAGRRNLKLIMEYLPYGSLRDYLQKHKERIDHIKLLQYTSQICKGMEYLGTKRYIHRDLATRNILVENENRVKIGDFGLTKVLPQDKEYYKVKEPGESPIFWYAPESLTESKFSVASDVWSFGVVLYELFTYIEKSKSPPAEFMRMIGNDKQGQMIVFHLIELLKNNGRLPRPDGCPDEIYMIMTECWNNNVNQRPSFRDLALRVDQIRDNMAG
Method: as §1

COc1cc(Nc2cc(O[C@H]3CC[C@@H](NC[C@@H](O)C(F)(F)F)CC3)cc3c2ncn3C)nn1C [Example 6, (2R)-1,1,1-Trifluoro-3-{[cis-4-({4-[(5-methoxy-1-methyl-1H-pyrazol-3-yl)amino]-1-methyl-1H-benzimidazol-6-yl}oxy)cyclohexyl]amino}propan-2-ol]
Rat paw swelling % inhibition at 3 mpk ([1]; 3 mpk oral once a day day 12 to 25, naïve rat as 100% inhibition): 12%
Rat paw swelling % inhibition at 10 mpk ([1]; 10 mpk oral once a day day 12 to 25, naïve rat as 100% inhibition): 47%
Rat paw swelling % inhibition at 30 mpk ([1]; 30 mpk oral once a day day 12 to 25, naïve rat as 100% inhibition): 79%
IC50 (JAK1): 0.168 ± 0.09 nM
IC50 (JAK3): 2540 ± 510 nM
IC50 (JAK2): 768 ± 220 nM
